US5498623A, “4(5) substituted imidazoles and their preparation and use” (Orion-yhtyma Oy, priority 1991, dated 1996)
Like-named read-outs stand apart in the source and are kept apart here.

Experiments:
[1] = system: α1-adrenoceptor; test: α1-Antagonism in vitro, isolated epididymal portion of rat vas deferens (vs phenylephrine); details: contraction induced by phenylephrine
Experimental: (§1) To obtain information also on the selectivity of the antagonist between α1 - and α2 -receptors, its ability to inhibit or stimulate α1 -receptors was determined by means of isolated epididymal portion of rat vas deferens. The reference substances were now phenylephrine, a known α1 -agonist, and prazosin, a known α1 -antagonist. To determine α1 -antagonism, muscular contraction was induced by phenylephrine and the pA2 value of the studied compound was determined as above α1 -Agonist effect is presented as the pD2 value (negative logarithm of the molar concentration of the compound producing 50 percent of maximal contraction).

[2] = molecular target: T1, α1-adrenoceptor (Rattus norvegicus, UniProt P43140); details: for α1-Agonism (pD2) rat vas deferens / EC50: negative logarithm of molar concentration producing 50 percent of maximal contraction; for EC50: read-out: α1-Agonism (pD2) rat vas deferens (converted)
T1 sequence (P43140 1-466): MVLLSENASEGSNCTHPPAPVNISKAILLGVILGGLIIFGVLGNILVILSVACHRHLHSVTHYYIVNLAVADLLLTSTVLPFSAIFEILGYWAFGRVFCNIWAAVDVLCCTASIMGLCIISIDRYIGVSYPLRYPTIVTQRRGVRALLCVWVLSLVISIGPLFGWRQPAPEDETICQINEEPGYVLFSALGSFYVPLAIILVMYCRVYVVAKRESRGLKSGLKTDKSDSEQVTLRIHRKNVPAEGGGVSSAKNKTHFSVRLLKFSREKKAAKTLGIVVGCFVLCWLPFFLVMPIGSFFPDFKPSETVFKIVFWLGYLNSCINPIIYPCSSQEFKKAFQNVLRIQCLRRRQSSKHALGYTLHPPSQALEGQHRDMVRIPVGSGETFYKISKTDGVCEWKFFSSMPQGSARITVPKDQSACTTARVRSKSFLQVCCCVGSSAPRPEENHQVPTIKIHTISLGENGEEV
Experimental: as §1

[3] = molecular target: T2, α2-adrenoceptor (Rattus norvegicus, UniProt P22909); test: Relative peroral bioavailability (α2-blocking potency after peroral vs parenteral administration); type: in vivo; details: equipotent doses 0.3 to 3 mg/kg, 1 hour before anaesthesia
T2 construct: transmitted via postsynaptic α2 -receptors in the central nervous system; from tissue; host or cells: whole anaesthetized rat (in vivo), central nervous system
T2 sequence (P22909 1-465): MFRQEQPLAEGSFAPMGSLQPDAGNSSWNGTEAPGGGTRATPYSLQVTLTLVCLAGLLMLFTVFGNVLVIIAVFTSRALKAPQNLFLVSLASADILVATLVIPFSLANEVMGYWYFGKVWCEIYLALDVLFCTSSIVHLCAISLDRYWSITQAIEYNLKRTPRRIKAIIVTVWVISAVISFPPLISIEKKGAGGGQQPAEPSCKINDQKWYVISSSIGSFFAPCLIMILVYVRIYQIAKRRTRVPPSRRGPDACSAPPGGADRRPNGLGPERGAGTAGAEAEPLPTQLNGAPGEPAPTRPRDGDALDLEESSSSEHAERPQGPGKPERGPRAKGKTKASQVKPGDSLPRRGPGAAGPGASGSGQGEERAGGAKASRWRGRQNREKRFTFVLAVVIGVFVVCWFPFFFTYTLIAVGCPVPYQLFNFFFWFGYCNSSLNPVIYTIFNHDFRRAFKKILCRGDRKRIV
Experimental: The relative bioavailability of the antagonists when administered orally was evaluated by comparing the potency of their α2 -blocking effect after peroral and parenteral administration. The antagonists were administered at equipotent doses (0.3 to 3 mg/kg) to groups of rats 1 hour before induction of anaesthesia and challenge with detomidine as described above in relation to the measurement of duration of action.

[4] = molecular target: T3, α2-adrenoceptor (Mus musculus, UniProt Q01338); test: α2-Antagonism in vitro, isolated electrically stimulated mouse vas deferens (vs detomidine)
T3 construct: isolated, electrically stimulated mouse vas deferens preparation; from tissue; host or cells: isolated mouse vas deferens
T3 sequence (Q01338 1-465): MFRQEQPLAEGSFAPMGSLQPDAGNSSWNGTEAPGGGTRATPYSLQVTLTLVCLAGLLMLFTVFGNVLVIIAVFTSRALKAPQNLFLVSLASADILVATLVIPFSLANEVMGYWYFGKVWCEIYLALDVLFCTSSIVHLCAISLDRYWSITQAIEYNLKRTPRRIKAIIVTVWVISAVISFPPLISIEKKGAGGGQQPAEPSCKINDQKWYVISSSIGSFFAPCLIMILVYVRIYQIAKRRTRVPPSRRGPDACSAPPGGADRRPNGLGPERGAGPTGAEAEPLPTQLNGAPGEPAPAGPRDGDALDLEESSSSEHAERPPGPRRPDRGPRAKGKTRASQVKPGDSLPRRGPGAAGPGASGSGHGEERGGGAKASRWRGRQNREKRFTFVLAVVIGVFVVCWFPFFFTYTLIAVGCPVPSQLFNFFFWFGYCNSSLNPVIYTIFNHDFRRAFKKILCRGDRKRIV
Experimental: 1. α2 -Antagonism in vitro
α2 -Antagonism was determined by means of isolated, electrically stimulated mouse vas deferens preparation (Marshall et al., Br. J. Pharmac. 62, 147, 151, 1978). In this model, α2 -agonist (detomidine) blocks electrically stimulated muscular contractions and the effect of the α2 -antagonist is seen by administering it prior to the agonist and by determining its pA2 value.

[5] = system: α2-adrenoceptor; test: α2-Adrenoceptor antagonism in vivo, reversal of detomidine-induced mydriasis in anaesthetized rat; details: dose producing 50 per cent reversal of detomidine-induced mydriasis
Experimental: 2. α2 -Adrenoceptor antagonism in vivo
It is known that in the rat α2 -agonists induce dilatation of the pupil (mydriasis) which effect is transmitted via postsynaptic α2 -receptors in the central nervous system. In anaesthetized rat, a standard dose of an α2 -agonist, detomidine, was administered intravenously. Thereafter increasing doses of the studied antagonists were injected intravenously and the reversal of detomidine-induced mydriasis was followed. The ED50 value of the antagonist, i.e. the dose producing a 50 per cent reversal, was determined.

[6] = system: α2-adrenoceptor; test: Duration of the α2-blocking action (antagonism of detomidine mydriasis after oral pretreatment); type: in vivo; details: rat, equipotent doses, pretreatment 1, 2, 4, 7 or 16 hours, time for antagonist effect to fall by half
Experimental: The duration of the α2 -blocking action of the compounds was determined as follows: the antagonists were administered orally at equipotent doses to groups of 4 rats 1, 2, 4, 7 or 16 hours before induction of anaesthesia and challenge with cumulative i.v. dosing of detomidine. By calculating the percentage antagonism of the mydriatic effect of 0.1 mg/kg detomidine for each pretreatment group, a time-effect relationship was established. This in turn permitted the measurement of the time taken for the antagonist effect to fall by half.

[7] = system: rats; test: Effects on learning and memory in linear arm maze task; type: in vivo, rat; details: for learning and memory effect (overall): adult rats; for time to solve the task / number of errors (reentries into arms already visited): rats; for time to solve the task: effect on learning and speed to make correct choices; for number of errors (reentries into arms already visited): effect on working memory
Experimental: The linear arm maze is a modified version of radial arm maze, which is a generally used memory test in rats. […] Water was also used as control. All injections were made in a volume 1 ml/kg.
Apparatus: The maze was a wooden platform in a shape of two crosses one after another. The stem (starting arm) was 90 cm long and 12 cm wide. The five other arms (goal arms) were 50 cm long and 12 cm wide. Four goal arms were situated perpendicularly to the stem and to the fifth arm which located opposite to the stem. On either side of the stem and the arms were edges, 2.0 cm high. At the end of each goal arm a hole 1 cm deep and 3 cm in diameter, served as a food cup. The starting platform (20×20 cm) was separated from the stem by a quillotine door. The door was 12 cm high and 7 cm wide. The door frame was 20 cm high and 20 cm wide. The maze was elevated 31 cm above the floor, in a low-lighted test room which contained other objects as well as the test apparatus. The holes at the end of the goal arms were baited with three pellets of prize food (45 mg pellets Bio Serve Inc.).
Procedures: Two days prior to training, animals were placed on a food deprivation schedule that reduces their body weights to 90% of initial weights. During these days the rats were habituated to handling (three times/day), test room and prize food. On the second day they were also habituated to the unbaited maze: three to five animals from the same cage at the same time for ten minutes. On the third day the goal arms were baited, and the teaching trial, one rat at a time, was carried out. The rat received drug or distilled water and […] later it was placed in the starting platform. After ten seconds the door was opened and the rat was allowed to explore the maze until all the baits were found. The time to find all the baits and reentries made into already visited arms was recorded. This time every rate was allowed to stay in the maze at least for five minutes. On the next day the proper memory and learning testing began and continued for four days (testing days 1 to 4). Rats were given eight trials, two per day. Inter trial interval was 50 minutes. Drugs or distilled water were administered 30 minutes before the first trial of the day. Otherwise testing trials were identical to the teaching trial. All the observations were done blind so that test solutions were in coded flasks.
Statistical analysis: The results were expressed as mean time/trial/day (seconds) and mean errors/trial/day. The analysis of variance for the repeated measurements (ANOVA) was used to compare the drugs' and the testing days' effects on learning and memory.

[8] = Acute toxicity (LD50) using mice; details: mouse, in vivo, po
Experimental: For example, the LD50 for 7-(4-(5-fluoro-2,3-dihydro-1H-inden-2-yl)-1H-imidazole) is 100 mg/kg (p.o.).

[9] = antagonist given prior to detomidine, mouse vas deferens, read-out: α2-Antagonism (pA2 vs detomidine) mouse vas deferens (converted)

Compound	α1-Agonism (pD2) rat vas deferens [2]	Peroral bioavailability [3]	Kb [4, 9] [µM]	α1-Antagonism (pA2 vs phenylephrine) rat vas deferens [1]	α2-Antagonism ED50 (iv) [5] [mg/kg]	t1/2 of α2-antagonism [6] [h]	Kb [4] [µM]	other results
CCC1(c2c[nH]cn2)Cc2cc(F)c(F)cc2C1 [Compound 3, 4-(2-Ethyl-5,6-difluoro-2,3-dihydro-1H-inden-2-yl)-1H-imidazole]			0.0631					
CCC1(c2c[nH]cn2)Cc2ccc(F)cc2C1=O (stereo not drawn) [Compound 4, 2-Ethyl-6-fluoro-2,3-dihydro-2-(1H-imidazol-4-yl)-1H-inden-1-one]	no effect	89	1.26	no effect	0.3	6		learning and memory effect (overall) ([7]; 3 mg/kg p.o. (hydrochloride)): learning and memory enhancing effects; time to solve the task ([7]; 3 mg/kg p.o. (hydrochloride)): decreased the time to solve the task; number of errors (reentries into arms already visited) ([7]; 3 mg/kg p.o. (hydrochloride)): decreased number of errors
CCC1(c2c[nH]cn2)Cc2ccc(Cl)cc2C1=O (stereo not drawn) [Compound 5, 6-Chloro-2-ethyl-2,3-dihydro-2-(1H-imidazol-4-yl)-1H-inden-1-one]			0.251					
Fc1cccc2c1CC(c1c[nH]cn1)C2 (stereo not drawn) [Compound 6, 4-(4-Fluoro-2,3-dihydro-1H-inden-2-yl)-1H-imidazole]							0.00794	EC50 [2]: 0.316 µM; α1-Agonism, type of agonist (full/partial) ([2]; rat vas deferens): full agonist
Fc1ccc2c(c1)CC(c1c[nH]cn1)C2 (stereo not drawn) [Compound 7, 4-(5-Fluoro-2,3-dihydro-1H-inden-2-yl)-1H-imidazole]		80			0.01	7	0.01	EC50 [2]: 3.16 µM; learning and memory effect (overall) ([7]; 0.3 mg/kg s.c. (hydrochloride)): learning and memory enhancing effects; time to solve the task ([7]; 0.3 mg/kg s.c. (hydrochloride)): decreased the time to solve the task; number of errors (reentries into arms already visited) ([7]; 0.3 mg/kg s.c. (hydrochloride)): decreased number of errors; LD50 [8]: 100 mg/kg
CCC1(c2cnc[nH]2)Cc2ccccc2C1 [atipamezole, reference compound]	no effect			5.0	0.01	2	0.00794	learning and memory effect (overall) ([7]; 0.3 mg/kg s.c. (hydrochloride)): learning and memory enhancing effects; time to solve the task ([7]; 0.3 mg/kg s.c. (hydrochloride)): decreased the time to solve the task; number of errors (reentries into arms already visited) ([7]; 0.3 mg/kg s.c. (hydrochloride)): decreased number of errors

Continued, in another order:

α1-Agonism (pD2) rat vas deferens [2]	Peroral bioavailability [3]	Kb [4, 9] [µM]	Compound	α1-Antagonism (pA2 vs phenylephrine) rat vas deferens [1]	α2-Antagonism ED50 (iv) [5] [mg/kg]	t1/2 of α2-antagonism [6] [h]	Kb [4] [µM]	other results
no effect	81	0.00631	CCC1(c2c[nH]cn2)Cc2ccc(F)cc2C1 (stereo not drawn) [Compound 1, 4-(2-Ethyl-5-fluoro-2,3-dihydro-1H-inden-2-yl)-1H-imidazole]	no effect	0.015	3		
		0.0501	CC1(c2c[nH]cn2)Cc2ccc(F)cc2C1 (stereo not drawn) [Compound 2, 4-(5-Fluoro-2,3-dihydro-2-methyl-1H-inden-2-yl)-1H-imidazole]					
		0.0631	CCC1(c2c[nH]cn2)Cc2ccc(O)cc2C1 (stereo not drawn) [Compound 8, 2-Ethyl-2-(1H-imidazol-4-yl)-5-indanol]					
